Assay results from article PMC7826463, “Pamiparib dose escalation in Chinese patients with non‐mucinous high‐grade ovarian cancer or advanced triple‐negative breast cancer” (Cancer Medicine, 2020).
Several values for one entry are separate records, joined by “and”; a condition that tells them apart may be missing. Identical values can stand only once. Entries after “also recorded” stand apart in the source; their conditions may differ. Like-named read-outs stand apart in the source and are kept apart here.

What was measured:
PARP1/2 = conditions: cited from earlier work
[1] = Plasma pharmacokinetics of pamiparib, single dose and steady state, non-compartmental; type: in vivo, human; conditions: for CL/F / Cmax / AUC(0-t) / AUC(0-inf): geometric mean (geometric CV%); for Cmax / AUC(0-t) / half-life / Tmax / AUC(0-inf): human, plasma; for half-life: geometric mean (range)
Procedure: Secondary objectives were assessment of PK parameters and antitumor activity. Blood samples for the PK analysis were collected at Cycle 1 on Days 1, 2, and 3. Pharmacokinetic sampling was performed at Cycle 1 on Day 1 (predose and at 0.5, 1, 2, 4, 6, 9, and 12 hours postdose), Day 2, Day 3, and Day 10 (predose and at 0.5, 1, 2, 4, 6, 9, and 12 hours postdose); then at Cycles 2 and 3 on Day 1 (predose and at 2 hours postdose). […] Tumor assessments were performed by the investigators at screening, every 6 weeks after the first dose of pamiparib in the 1st year, and every 12 weeks thereafter until progression, per RECIST v1.1. Patients completed the study at the time of their safety follow‐up visit; therefore, radiological assessment of disease progression was not performed after the safety follow‐up visit. Approximately 14 to 18 evaluable patients were expected to enroll in the phase 1 part of the study. The safety population included all patients who received ≥1 dose of pamiparib. The PK population included all patients for whom valid pamiparib PK parameters could be estimated. Antitumor activity per RECIST v1.1 was assessed in all evaluable patients. […] The population evaluable for CA‐125 response included patients in the safety population with baseline CA‐125 ≥2 x upper limit of normal. Descriptive statistics were used to summarize all study data. Continuous variables included the number of non‐missing observations, mean, standard deviation, median, minimum, and maximum. Categorical variables were summarized by their frequency and percentage. Progression‐free survival was estimated using the Kaplan–Meier method and the corresponding 95% confidence interval (CI) was constructed using Greenwood's formula. Standard PK parameters (i.e., area under the plasma concentration‐time curve [AUC] from time of drug administration; maximum plasma concentration [Cmax]; time to Cmax; elimination half‐life [t1/2]; apparent clearance; and apparent volume of distribution during terminal phase) were estimated and derived using standard non‐compartmental methods.

## C[C@]12CCCN1CC1=NNC(=O)c3cc(F)cc4[nH]c2c1c34 [pamiparib, Pamiparib]
PARP1/2
  Potency relative to olaparib (fold more potent): 10 fold
[1]; 20 mg BID, n 4
  Accumulation ratio, AUC0-12: 2.05
  Accumulation ratio, Cmax: 1.78
[1]; 40 mg BID, n 4
  Accumulation ratio, AUC0-12: 3.95
  Accumulation ratio, Cmax: 3.19
[1]; 60 mg BID, n 5
  Accumulation ratio, AUC0-12: 3.4 and 3.36
  Accumulation ratio, Cmax: 2.6 and 2.62
[1]; Single dose, 20 mg BID cohort, N 4
  CL/F: 1.95 (44) L/hr
[1]; Single dose, 40 mg BID cohort, N 4
  CL/F: 2.07 (61) L/hr
[1]; Single dose, 60 mg BID cohort, N 7
  CL/F: 2.19 (79) L/hr
[1]; between 20 mg and 60 mg BID, after a single dose
  Dose proportionality of plasma exposure (AUC and Cmax): increased near proportionally; also recorded: near dose‐proportional
[1]; oral, 20 mg, Single dose, 20 mg BID cohort, N 4, plasma
  Cmax: 718 ng/mL
[1]; oral, 20 mg, Single dose, 20 mg BID cohort, N 4, read-out: AUC0-9
  AUC(0-t): 4130 ng·h/mL
[1]; oral, 20 mg, Single dose, 20 mg BID cohort, N 4, read-out: AUC0-12
  AUC(0-t): 5030 ng·h/mL
[1]; oral, 20 mg, Single dose, 20 mg BID cohort, N 4
  half-life: 12.1 h
[1]; oral, 20 mg, Single dose, 20 mg BID cohort, N 4, median (range), read-out: Tmax
  Tmax: 1.01 h
[1]; oral, 20 mg, Steady state (Cycle 1 Day 10), 20 mg BID, N 4
  Cmax: 1280 ng/mL
[1]; oral, 20 mg, Steady state (Cycle 1 Day 10), 20 mg BID, N 4, read-out: AUC0-9
  AUC(0-t): 8360 ng·h/mL
[1]; oral, 20 mg, Steady state (Cycle 1 Day 10), 20 mg BID, N 4, read-out: AUC0-12
  AUC(0-t): 10300 ng·h/mL
[1]; oral, 20 mg, Steady state (Cycle 1 Day 10), 20 mg BID, N 4, median (range), read-out: Tmax
  Tmax: 1.04 h
[1]; oral, 40 mg, Single dose, 40 mg BID cohort, N 4, plasma
  Cmax: 1630 ng/mL
[1]; oral, 40 mg, Single dose, 40 mg BID cohort, N 4, read-out: AUC0-9
  AUC(0-t): 8560 ng·h/mL
[1]; oral, 40 mg, Single dose, 40 mg BID cohort, N 4, read-out: AUC0-12
  AUC(0-t): 10400 ng·h/mL
[1]; oral, 40 mg, Single dose, 40 mg BID cohort, N 4
  half-life: 11.8 h
[1]; oral, 40 mg, Single dose, 40 mg BID cohort, N 4, median (range), read-out: Tmax
  Tmax: 0.98 h
[1]; oral, 40 mg, Steady state (Cycle 1 Day 10), 40 mg BID, N 4
  Cmax: 5210 ng/mL
[1]; oral, 40 mg, Steady state (Cycle 1 Day 10), 40 mg BID, N 4, read-out: AUC0-9
  AUC(0-t): 32500 ng·h/mL
[1]; oral, 40 mg, Steady state (Cycle 1 Day 10), 40 mg BID, N 4, read-out: AUC0-12
  AUC(0-t): 40900 ng·h/mL
[1]; oral, 40 mg, Steady state (Cycle 1 Day 10), 40 mg BID, N 4, median (range), read-out: Tmax
  Tmax: 1.1 h
[1]; oral, 60 mg, Single dose, 60 mg BID cohort, N 7, plasma
  Cmax: 2300 ng/mL
[1]; oral, 60 mg, Single dose, 60 mg BID cohort, N 7, read-out: AUC0-9
  AUC(0-t): 11900 ng·h/mL
[1]; oral, 60 mg, Single dose, 60 mg BID cohort, N 7, read-out: AUC0-12
  AUC(0-t): 14800 ng·h/mL
[1]; oral, 60 mg, Single dose, 60 mg BID cohort, N 7
  half-life: ~14 h
[1]; oral, 60 mg, Single dose, 60 mg BID cohort, N 7, median (range), read-out: Tmax
  Tmax: 1.13 h
[1]; oral, 60 mg, Steady state (Cycle 1 Day 10), 60 mg BID, N 5
  Cmax: 5860 ng/mL
[1]; oral, 60 mg, Steady state (Cycle 1 Day 10), 60 mg BID, N 5, read-out: AUC0-9
  AUC(0-t): 38100 ng·h/mL
[1]; oral, 60 mg, Steady state (Cycle 1 Day 10), 60 mg BID, N 5, read-out: AUC0-12
  AUC(0-t): 47100 ng·h/mL
[1]; oral, 60 mg, Steady state (Cycle 1 Day 10), 60 mg BID, N 5, median (range), read-out: Tmax
  Tmax: 1.13 h
[1]; oral, Single dose, 20 mg BID cohort, N 4
  AUC(0-inf): 10200 ng·h/mL
[1]; oral, Single dose, 40 mg BID cohort, N 4
  AUC(0-inf): 19300 ng·h/mL
[1]; oral, Single dose, 60 mg BID cohort, N 7
  AUC(0-inf): 27500 ng·h/mL
[1]; po, 60 mg, oral administration, RP2D of 60 mg BID, read-out: median Tmax
  Tmax: ~1 h
[1]; single-dose administration
  Plasma exposure after a single dose compared with FIH study: similar
[1]; steady state
  Steady-state exposure compared with FIH study: slightly higher
